Laboratory results published in patent US20140243350A1, “USE OF SEROTONIN RECEPTOR AGONISTS FOR TREATMENT OF MOVEMENT DISORDERS” (CONTERA PHARMA APS, priority 2011, published 2014).
Read-outs that look alike come from different tables or passages of the source.

Key:
naïve rats = conditions: retigabine alone 10 mg/kg i.p.; for total move distance (locomotor activity) in open field test: FIG. 6; for total velocity (locomotor activity) in open field test: FIG. 7; for locomotor activity (moving distance and velocity) in open field test: FIGS. 6 and 7
Description: Species: 60 Sprague-Dawley male rats (180-220 g, bred in house, originally from SLAC Labortory Animal Co. Ltd) at 9-week of age.
Administration and dose regimen for the groups of animals (each comprising 10 rats):
Vehicle: 10% Tween 80, i.p., 30 min before test, n=10. Buspirone 1: Buspirone (From Sigma, Cat. No. B7148, Lot. No. 042K1763Z) 1 mg/kg, i.p. 30 min before test, n=10. Buspirone 2: Buspirone 2 mg/kg, i.p. 30 min before test, n=10.
Rats were put in open-field chambers (dimensions 40 cm×40 cm×40 cm) 30 minutes after dosing. After a 15 minutes habituation, locomotion were recorded and analyzed by Enthovision Video Tracking Software (Noldus Information Technology, Netherlands) for 60 minutes. All locomotor activities were done during dark phase and to eliminate olfactory cues, the arena was thoroughly cleaned with 70% v/v ethanol between each test.
Data statistics: The total locomotor activity is expressed as total moved distance (cm) and average velocity (cm/s) every 10 minutes during 60 minutes. The data were analyzed using One-Way ANOVA and the Tukey post-hoc test. The locomotor activity in six time point is expressed as moved distance (cm) and average velocity (cm/s) every 10 minutes. The data were analyzed using One-Way ANOVA and the Tukey post-hoc test in each time point.

[1] = system: unilaterally 6-OHDA-lesioned rats; conditions: buspirone alone 0.5 mg/kg i.p.
Excerpt: 6-OHDA (6-hydroxydopamine) is a neurotoxin that selectively kills dopaminergic and noradrenergic neurons and induces a reduction of dopamine levels in the brain. […] These are axial, limb and oral movements that occur only on the body side that is […] to the lesion.
In the mild cases: lateral flexion of the neck or torsional movements of the upper trunk towards the side contralateral to the lesion. With repeated injection of L-DOPA, this movement may develop into a pronounced and continuous dystonia-like axial torsion. […] In mild cases: hyperkinetic, jerky stepping movements of the forelimb contralateral to the lesion, or small circular movements of the forelimb to and from the snout.

LID model rats = conditions: buspirone alone 0.2 mg/kg s.c., 11 min before AIM test; FIG. 8A
[2] = system: patients treated with neuroleptics; conditions: open study, relative high doses; cited from earlier work

| SMILES | total move distance (locomotor activity) in open field test (naïve rats; after 20 to 60 minutes) | total velocity (locomotor activity) in open field test (naïve rats; after 20 to 60 minutes) | total velocity (locomotor activity) in open field test (naïve rats; after 10 minutes, vs vehicle) | locomotor activity (moving distance and velocity) in open field test (naïve rats; after 20 mins) | locomotor activity (moving distance and velocity) in open field test (naïve rats; initially (after 10 min)) | total move distance (locomotor activity) in open field test (naïve rats; initially, vs vehicle) | abnormal involuntary movements (AIM), sum of Lo, Ax, Li and Ol scores per testing session, time course ([1]; FIG. 1, vs vehicle) | AUC (20-60 min) of total AIM (Lo+Ax+Li+Ol) ([1]; FIG. 2) | AUC (20-60 min) of locomotive limb (Li) AIM scores ([1]; FIG. 3) | AUC (20-60 min) of locomotive Axial (Ax) AIM scores ([1]; FIG. 4) | AUC (20-60 min) of Orolingual (OL) AIM scores ([1]; FIG. 5) | AUC (10-190 min) of total AIM (Lo+Ax+Li+Ol) (LID model rats) | effects on tardive dyskinesia, Parkinsonism and akathisia [2] |
| --- | --- | --- | --- | --- | --- | --- | --- | --- | --- | --- | --- | --- | --- |
| CCOC(=O)Nc1ccc(NCc2ccc(F)cc2)cc1N [retigabine, N-(2-amino-4-(4-fluorobenzylamino)-phenylcarbamic acid) ethyl ester] | no significant differences | no significant differences | significantly inhibit | no significant difference | significantly inhibit | significantly inhibit | – | – | – | – | – | – | – |
| O=C1CC2(CCCC2)CC(=O)N1CCCCN1CCN(c2ncccn2)CC1 [buspirone, 8-[4-(4-pyrimidin-2-ylpiperazin-1-yl)butyl]-8-azaspiro[4.5]decane-7,9-dione] | – | – | – | – | – | – | partially reduced | partially reduced | did not have an effect | partially reduced | significantly reduced | small effect | has effects |
